Results on 13 compounds are retold here after patent US20260297081A1, “COMPOUNDS AND METHODS OF TREATING CANCERS” (Cullgen Inc., priority 2023, published 2026).

pIC50: −log10 of the molar value. A value given as a limit tells only on which side of the number the result lay.

What all share (type): cell-based
Assay [1] has as its system Calu-1 cells. The assay is described as follows: Anti-proliferation (viability) of NSCLC Calu-1 cells, 3 days (Table 7, FIG. 2B). The note with it: Homo sapiens, 72 h; Calu-1 cells, 3 days, 10-point serial dilution; read-out: GI IC50 in Calu-1. Put shortly: (§1)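 Seed cells, add compound in ten serially diluted concentrations, then incubate (Calu-1: 3 days; T47D: 6 days) before measuring viability.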

Assay [2] deals with CDK4 (Homo sapiens, UniProt P11802+Q16531). The assay is described as follows: CDK4 percentage degradation in Calu-1 cells (Table 6). Further details: Cells that express cyclin D1-3 and CDK4/6 proteins were treated with heterobifunctional compounds; endogenous in cells; host or cells: Calu-1. To be noted: 16 hours; for inhibition at 0.04 µM: 40 nM; for inhibition at 0.2 µM: 200 nM. Put shortly: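 Calu-1 cells exposed to heterobifunctional compounds at 40 nM or 200 nM for 16 h. Cyclin D1 and CDK4 levels measured by Western blot of RIPA lysates (BCA-normalised loading), bands quantified by densitometry and expressed as percentage degradation.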
Sequence of CDK4 (P11802 2-303 limits assumed): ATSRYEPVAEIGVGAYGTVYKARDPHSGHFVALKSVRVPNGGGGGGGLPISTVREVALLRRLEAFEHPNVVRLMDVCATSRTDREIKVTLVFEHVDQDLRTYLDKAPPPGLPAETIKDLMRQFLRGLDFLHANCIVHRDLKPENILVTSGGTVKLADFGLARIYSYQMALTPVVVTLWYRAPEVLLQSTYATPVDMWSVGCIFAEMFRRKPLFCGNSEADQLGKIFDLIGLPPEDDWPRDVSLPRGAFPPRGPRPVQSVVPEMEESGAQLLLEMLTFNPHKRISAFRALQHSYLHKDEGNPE
Sequence of CDK4 (P24385 whole entry partner): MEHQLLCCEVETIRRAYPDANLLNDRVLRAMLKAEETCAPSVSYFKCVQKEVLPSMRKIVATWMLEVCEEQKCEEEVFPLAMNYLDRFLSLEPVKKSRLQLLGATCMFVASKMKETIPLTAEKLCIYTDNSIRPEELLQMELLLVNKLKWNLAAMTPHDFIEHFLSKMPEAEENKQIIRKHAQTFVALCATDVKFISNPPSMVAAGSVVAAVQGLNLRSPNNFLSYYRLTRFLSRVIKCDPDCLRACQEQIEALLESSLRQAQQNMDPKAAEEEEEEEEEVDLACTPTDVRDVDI
Sequence of CDK4 (Q16531 2-1140 limits assumed): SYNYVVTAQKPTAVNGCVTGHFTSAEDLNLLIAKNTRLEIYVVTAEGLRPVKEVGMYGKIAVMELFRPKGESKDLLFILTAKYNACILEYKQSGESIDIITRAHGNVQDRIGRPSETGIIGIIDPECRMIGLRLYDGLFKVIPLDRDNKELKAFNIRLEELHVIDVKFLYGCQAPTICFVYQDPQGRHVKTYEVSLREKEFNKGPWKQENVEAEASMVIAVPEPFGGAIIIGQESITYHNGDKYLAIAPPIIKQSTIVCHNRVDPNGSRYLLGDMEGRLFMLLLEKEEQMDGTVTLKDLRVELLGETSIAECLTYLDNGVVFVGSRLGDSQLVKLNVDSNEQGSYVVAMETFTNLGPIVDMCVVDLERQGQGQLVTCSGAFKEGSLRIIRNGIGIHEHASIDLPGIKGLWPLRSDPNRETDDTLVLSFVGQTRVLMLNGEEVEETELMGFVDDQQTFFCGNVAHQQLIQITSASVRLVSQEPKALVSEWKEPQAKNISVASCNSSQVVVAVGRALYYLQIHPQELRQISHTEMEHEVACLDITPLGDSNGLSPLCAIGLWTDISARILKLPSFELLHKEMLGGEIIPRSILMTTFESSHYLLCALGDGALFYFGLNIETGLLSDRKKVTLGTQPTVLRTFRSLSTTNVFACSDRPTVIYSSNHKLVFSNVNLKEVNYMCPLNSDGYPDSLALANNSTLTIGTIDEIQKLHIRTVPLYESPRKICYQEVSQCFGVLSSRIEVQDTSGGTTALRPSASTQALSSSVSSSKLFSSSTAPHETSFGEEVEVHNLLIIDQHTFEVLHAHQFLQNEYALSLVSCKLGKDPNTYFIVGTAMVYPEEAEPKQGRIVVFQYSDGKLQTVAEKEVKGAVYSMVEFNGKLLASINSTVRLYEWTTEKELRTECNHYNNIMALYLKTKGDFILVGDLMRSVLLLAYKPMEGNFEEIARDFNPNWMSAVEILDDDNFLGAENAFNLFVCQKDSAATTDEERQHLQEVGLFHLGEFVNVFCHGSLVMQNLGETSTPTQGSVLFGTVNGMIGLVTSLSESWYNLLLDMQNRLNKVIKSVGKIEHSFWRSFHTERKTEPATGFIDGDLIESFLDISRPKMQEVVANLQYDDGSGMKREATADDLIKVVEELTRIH

Assay [3] concerns T47D cells. The experiment in a line: Anti-proliferation (viability) of ER+ breast cancer T47D cells, 6 days (Table 7, FIG. 2B). The note with it: Homo sapiens, 144 h; T47D cells, 6 days, 10-point serial dilution; read-out: GI IC50 in T47D. Put shortly: as §1
Assay [4] has as its system MCF7 cells. The assay is described as follows: Anti-proliferation (viability) of MCF7 cells (Table 7, FIG. 2B). The note with it: Homo sapiens, MCF7, MCF7 cells, 3-6 days, 10-point serial dilution; read-out: GI IC50 in MCF-7.

As usually defined, the pIC50 is the IC50 on a negative log10 scale, so that one unit is a factor of ten. As usually defined, the inhibition is the change of the read-out against control, counted positive when it falls. Low values mean a response near the control, high ones a response far below the control. As for `CNc1ccc(C(=O)Nc2cn(C)c(C3CC3)n2)c(NC2CC3(CC(NC(=O)CN4CCN(c5ccc(Nc6ncc7c(C)c(C(C)=O)c(=O)n(C8CCCC8)c7n6)nc5)CC4)C3)C2)n1` (centres unmarked) [CPD-135, 2-((6-(2-(4-(6-((6-Acetyl-8-cyclopentyl-5-methyl-7-oxo-7,8-dihydropyrido[2,3-d]pyrimidin-2-yl)amino)pyridin-3-yl)piperazin-1-yl)acetamido)spiro[3.3]heptan-2-yl)amino)-N-(2-cyclopropyl-1-methyl-1H-imidazol-4-yl)-6-(methylamino)nicotinamide], the pIC50 was 7.30 to 8.00 in assay [1], at most 7.00 in assay [3] and above 7.30 in assay [4]. For the same compound, the inhibition at 0.04 µM in assay [2] fell in the range of 30 to 50%. The inhibition at 0.2 µM in assay [2] is 50 to 80%.
Consider `CNc1ccc(C(=O)Nc2cc(C)n(C)n2)c(NCCCCCNC(=O)CN2CCN(c3ccc(Nc4ncc5c(C)c(C(C)=O)c(=O)n(C6CCCC6)c5n4)nc3)CC2)n1` [CPD-50, 2-((5-(2-(4-(6-((6-acetyl-8-cyclopentyl-5-methyl-7-oxo-7,8-dihydropyrido[2,3-d]pyrimidin-2-yl)amino)pyridin-3-yl)piperazin-1-yl)acetamido)pentyl)amino)-N-(1,5-dimethyl-1H-pyrazol-3-yl)-6-(methylamino)nicotinamide], for which the figures for the negative-log IC50 (pIC50) in assay [1], in assay [3] and in assay [4] were at least 8.00, 7.00 to 7.30 and above 7.30, respectively. Further, in assay [2], the inhibition at 0.04 µM was 50 to 80%. Further, in assay [2], the inhibition at 0.2 µM was in the range of 50 to 80%.
Take `CCc1ccc(C(=O)Nc2ccc(N(C)C)nn2)c(NCCCCCNC(=O)CN2CCN(c3ccc(Nc4ncc5c(C)c(C(C)=O)c(=O)n(C6CCCC6)c5n4)nc3)CC2)n1` [CPD-54, 2-((5-(2-(4-(6-((6-Acetyl-8-cyclopentyl-5-methyl-7-oxo-7,8-dihydropyrido[2,3-d]pyrimidin-2-yl)amino)pyridin-3-yl)piperazin-1-yl)acetamido)pentyl)amino)-N-(6-(dimethylamino)pyridazin-3-yl)-6-ethylnicotinamide]: the values for the pIC50 in assay [1], in assay [3] and in assay [4] were at least 8.00, 7.00 to 7.30 and above 7.30, respectively. In assay [2], this compound showed an inhibition at 0.04 µM of 50 to 80%. Moreover, the inhibition at 0.2 µM in assay [2] is 50 to 80%.
For `CNc1ccc(C(=O)Nc2cccc(C3CC3)n2)c(NCCCCCNC(=O)CN2CCN(c3ccc(Nc4ncc5c(C)c(C(C)=O)c(=O)n(C6CCCC6)c5n4)nc3)CC2)n1` [CPD-51, 2-((5-(2-(4-(6-((6-Acetyl-8-cyclopentyl-5-methyl-7-oxo-7,8-dihydropyrido[2,3-d]pyrimidin-2-yl)amino)pyridin-3-yl)piperazin-1-yl)acetamido)pentyl)amino)-N-(6-cyclopropylpyridin-2-yl)-6-(methylamino)nicotinamide], the figures for the pIC50 in assay [1], in assay [3] and in assay [4] were at least 8.00, 7.00 to 7.30 and 7.00 to 7.30, respectively. The inhibition at 0.04 µM in assay [2] lay in the range of 50 to 80%. The compound further showed an inhibition at 0.2 µM in assay [2] of 50 to 80%.
With `CNc1ccc(C(=O)Nc2ccc3c(ccn3C)n2)c(NCCCCCNC(=O)CN2CCN(c3ccc(Nc4ncc5c(C)c(C(C)=O)c(=O)n(C6CCCC6)c5n4)nc3)CC2)n1` [CPD-33, 2-((5-(2-(4-(6-((6-Acetyl-8-cyclopentyl-5-methyl-7-oxo-7,8-dihydropyrido[2,3-d]pyrimidin-2-yl)amino)pyridin-3-yl)piperazin-1-yl)acetamido)pentyl)amino)-N-(1-methyl-1H-pyrrolo[3,2-b]pyridin-5-yl)-6-(methylamino)nicotinamide], the pIC50 is 7.30 to 8.00 in assay [1], 7.00 to 7.30 in assay [3] and below 7.00 in assay [4]. The compound further showed an inhibition at 0.04 µM in assay [2] of 50 to 80%. The inhibition at 0.2 µM in assay [2] is above 80%.
The corresponding values for `CC(=O)c1c(C)c2cnc(Nc3ccc(N4CCN(CC(=O)NCCCCCNc5nc(C(C)C)ccc5C(=O)Nc5ccc(N(C)C)nn5)CC4)cn3)nc2n(C2CCCC2)c1=O` [CPD-63, 2-((5-(2-(4-(6-((6-Acetyl-8-cyclopentyl-5-methyl-7-oxo-7,8-dihydropyrido[2,3-d]pyrimidin-2-yl)amino)pyridin-3-yl)piperazin-1-yl)acetamido)pentyl)amino)-N-(6-(dimethylamino)pyridazin-3-yl)-6-isopropylnicotinamide] are at least 8.00, at least 7.30, above 7.30, above 80% and above 80%.
As for `[2H]C([2H])([2H])Nc1ccc(C(=O)Nc2ccc(N(C)C)nn2)c(NCCCCCNC(=O)CN2CCN(c3ccc(Nc4ncc5c(C)c(C(C)=O)c(=O)n(C6CCCC6)c5n4)nc3)CC2)n1` [CPD-66, 2-((5-(2-(4-(6-((6-Acetyl-8-cyclopentyl-5-methyl-7-oxo-7,8-dihydropyrido[2,3-d]pyrimidin-2-yl)amino)pyridin-3-yl)piperazin-1-yl)acetamido)pentyl)amino)-N-(6-(dimethylamino)pyridazin-3-yl)-6-((methyl-d3)amino)nicotinamide], the figures for the pIC50 in assay [1], in assay [3] and in assay [4] were at least 8.00, 7.00 to 7.30 and below 7.00, respectively. Further, in assay [2], the inhibition at 0.04 µM fell in the range of 50 to 80%. The same compound registered an inhibition at 0.2 µM in assay [2] of 50 to 80%.
`CNc1ccc(C(=O)Nc2ccc(N(C)C)nn2)c(NCCCCn2cc(CN3CCN(c4ccc(Nc5ncc6c(C)c(C(C)=O)c(=O)n(C7CCCC7)c6n5)nc4)CC3)nn2)n1` [CPD-30, 2-((4-(4-((4-(6-((6-Acetyl-8-cyclopentyl-5-methyl-7-oxo-7,8-dihydropyrido[2,3-d]pyrimidin-2-yl)amino)pyridin-3-yl)piperazin-1-yl)methyl)-1H-1,2,3-triazol-1-yl)butyl)amino)-N-(6-(dimethylamino)pyridazin-3-yl)-6-(methylamino)nicotinamide]: the figures for the pIC50 in assay [1], in assay [3] and in assay [4] were 7.30 to 8.00, 7.00 to 7.30 and below 7.00, respectively. In addition, the inhibition at 0.04 µM in assay [2] fell in the range of 50 to 80%. The inhibition at 0.2 µM in assay [2] is above 80%.
As for `CNc1ccc(C(=O)Nc2ccc(N(C)C)nn2)c(NC2CC3(C2)CN(C(=O)CCN2CCN(c4ccc(Nc5ncc6c(C)c(C(C)=O)c(=O)n(C7CCCC7)c6n5)nc4)CC2)C3)n1` [CPD-62, 2-((2-(3-(4-(6-((6-Acetyl-8-cyclopentyl-5-methyl-7-oxo-7,8-dihydropyrido[2,3-d]pyrimidin-2-yl)amino)pyridin-3-yl)piperazin-1-yl)propanoyl)-2-azaspiro[3.3]heptan-6-yl)amino)-N-(6-(dimethylamino)pyridazin-3-yl)-6-(methylamino)nicotinamide], the pIC50 is at least 8.00 in assay [1], at least 7.30 in assay [3] and above 7.30 in assay [4]. For the same compound, the inhibition at 0.04 µM in assay [2] was above 80%. The same compound gave an inhibition at 0.2 µM in assay [2] above 80%.
Regarding `CNc1ccc(C(=O)Nc2cccc(C3CC3)n2)c(NC2CC3(C2)CN(C(=O)CCN2CCN(c4ccc(Nc5ncc6c(C)c(C(C)=O)c(=O)n(C7CCCC7)c6n5)nc4)CC2)C3)n1` [CPD-103, 2-((2-(3-(4-(6-((6-Acetyl-8-cyclopentyl-5-methyl-7-oxo-7,8-dihydropyrido[2,3-d]pyrimidin-2-yl)amino)pyridin-3-yl)piperazin-1-yl)propanoyl)-2-azaspiro[3.3]heptan-6-yl)amino)-N-(6-cyclopropylpyridin-2-yl)-6-(methylamino)nicotinamide], the values for the negative logarithm of the IC50 (pIC50) in assay [1], in assay [3] and in assay [4] were at least 8.00, 7.00 to 7.30 and below 7.00, respectively. The compound further came in with an inhibition at 0.04 µM in assay [2] above 80%. In assay [2], this compound displayed an inhibition at 0.2 µM above 80%.
Take `CNc1ccc(C(=O)Nc2ccc(N(C)C)nn2)c(NC2CCC(CCNC(=O)CN3CCN(c4ccc(Nc5ncc6c(C)c(C(C)=O)c(=O)n(C7CCCC7)c6n5)nc4)CC3)C2)n1` (centres unmarked) [CPD-136, 2-((3-(2-(2-(4-(6-((6-Acetyl-8-cyclopentyl-5-methyl-7-oxo-7,8-dihydropyrido[2,3-d]pyrimidin-2-yl)amino)pyridin-3-yl)piperazin-1-yl)acetamido)ethyl)cyclopentyl)amino)-N-(6-(dimethylamino)pyridazin-3-yl)-6-(methylamino)nicotinamide]: the pIC50 in assay [1] is at least 8.00; in assay [3], 7.00 to 7.30; in assay [4], below 7.00. The compound further yielded an inhibition at 0.04 µM in assay [2] of 50 to 80%. This compound returned an inhibition at 0.2 µM in assay [2] of 50 to 80%.
With `CNc1ccc(C(=O)Nc2ccc(OC)nn2)c(NCCCCCCCNC(=O)CN2CCN(c3ccc(Nc4ncc5c(C)c(C(C)=O)c(=O)n(C6CCCC6)c5n4)nc3)CC2)n1` [CPD-11, 2-((7-(2-(4-(6-((6-Acetyl-8-cyclopentyl-5-methyl-7-oxo-7,8-dihydropyrido[2,3-d]pyrimidin-2-yl)amino)pyridin-3-yl)piperazin-1-yl)acetamido)heptyl)amino)-N-(6-methoxypyridazin-3-yl)-6-(methylamino)nicotinamide], the pIC50 in assay [1] was 7.30 to 8.00; in assay [3], 7.00 to 7.30; in assay [4], above 7.30. In addition, the inhibition at 0.04 µM in assay [2] fell in the range of 50 to 80%. For the same compound, in assay [2], the inhibition at 0.2 µM was above 80%.
As for `CNc1ccc(C(=O)Nc2ccc(N(C)C)nn2)c(NCCCCCNC(=O)C(C)N2CCN(c3ccc(Nc4ncc5c(C)c(C(C)=O)c(=O)n(C6CCCC6)c5n4)nc3)CC2)n1` (centres unmarked) [CPD-14, 2-((5-(2-(4-(6-((6-Acetyl-8-cyclopentyl-5-methyl-7-oxo-7,8-dihydropyrido[2,3-d]pyrimidin-2-yl)amino)pyridin-3-yl)piperazin-1-yl)propanamido)pentyl)amino)-N-(6-(dimethylamino)pyridazin-3-yl)-6-(methylamino)nicotinamide], the pIC50 in assay [1] was at least 8.00; in assay [3], 7.00 to 7.30; in assay [4] it was above 7.30. Also, the inhibition at 0.04 µM in assay [2] lay within 50 to 80%. This compound also showed an inhibition at 0.2 µM in assay [2] of 50 to 80%.
